Paper PMC3006138, “Fexinidazole – A New Oral Nitroimidazole Drug Candidate Entering Clinical Development for the Treatment of Sleeping Sickness” (PLoS Neglected Tropical Diseases, 2010)
Like-named read-outs stand apart in the source and are kept apart here.

Assay: Rat 28-day toxicokinetics
Assay type: in vivo
Settings: plasma, po; for AUC: read-out: AUC within 24 hours post dosing; for half-life: read-out: apparent terminal half-life (converted)
Procedure: In the rat repeated-dose toxicokinetic study, fexinidazole was administered orally by gavage once a day for 28 consecutive days to ten or fifteen Crl:CD (SD)IGS BR rats/sex/group at doses of 50, 200, or 800 mg/kg/day. A control group received the vehicle alone (5% Tween 80/0.5% methocel). Ten animals/sex/group were sacrificed at the end of the treatment period on day 29 or 30 of study. The remaining 5 animals/sex/group in the control and high-dose groups were sacrificed on day 43 at the end of a 2-weeks observation period. Systemic exposure to fexinidazole and its sulfoxide and sulfone metabolites was evaluated in three additional animals/sex/group. Samples were taken at predose, and 30 min, 1, 2, 4, 8 and 24 h after dosing on days 1, 14, and 28, and in addition at 48 and 72 h after treatment on day 28.
Toxicokinetic Report for the study No. 0504-2007
SD Standard deviation of the mean […]
t1/2,z Terminal half-life tmax Time to peak plasma concentration
ULOQ Upper limit of quantification
The study was conducted according to the study protocol and related amendment.
Fexinidazole was orally given by gavage once a day for 28 days to male and female Sprague Dawley rats according to the following scheme
Fexinidazole was suspended with 5% Tween 80 in 0.5% Methyl cellulose 400 cP.
6.2. Sample Collection and Handling
Blood samples (about 0.25 mL/sampling time) were withdrawn from retro-orbital sinus plexus under isofluorane anesthesia and put in heparinized plastic tubes kept on a ice-water bath, then centrifuged for 10 min at 1200g at +4°C and two aliquots of about 50 μL of plasma were stored in a freezer at -80°C until analysis. Blood was taken from three rats/gender/dose on Days 1 and 14 at pre-dose and 0.5, 1, 2, 4, 8 and 24 hours after dosing, on Day 28 at pre-dose and 1, 2, 4, 8, 24, 48 and 72 hours after dosing. After the administration of the vehicle, the samples were taken from three rats/gender at pre-dose and […]
6.3. Bioanalytical Method
Rat plasma concentrations of Fexinidazole and its sulfoxide (M1) and sulfone (M2) metabolites were determined by a validated LC/MS/MS method. The calibration range for the assay was 5-1000 ng/mL for Fexinidazole and 25-25000 ng/mL for M1 and M2.
Study samples containing analytes concentrations above the upper limit of quantitation were diluted with blank matrix prior to analysis.
6.4. Pharmacokinetic Calculations
Pharmacokinetic evaluation was carried out using non-compartmental approach with the aid […]
Excel spreadsheet (Microsoft Inc., Seattle, USA). […]
In the calculations, the undetectable concentrations between detectable ones were ignored.
After each dose level, Cmax and tmax of Fexinidazole and sulfoxide and sulfone metabolites […]
linear trapezoidal rule up to the last detectable concentration. On Day 28, since the blood […]
24 hours post dosing was calculated and denoted AUC0-24. This AUC was calculated in order to compare AUC values on Day 28 to those on Day 1 and Day 14. On Day 28, in addition, the half-life of the terminal phase, t1/2,z, was determined by linear regression analysis of the natural-log concentration vs. time curve, where t1/2,z = ln(2)/slope of the regression line.
Fexinidazole and metabolites accumulation ratios, based on Cmax (RA,Cmax), AUC0-24 (RA,AUC0-24) and AUC0-t(last) (RA,AUC0-t(last)), were calculated as the ratio between the parameters obtained on Day 14 and Day 28 to the corresponding one at Day 1. […]
pharmacokinetic parameters of each compound sorted by dose, gender and day of dosing. […]
compound are reported in Tables 1 and 2, whilst individual and mean parameters of each […]
Individual and mean (±SD, CV%) plasma
2A1 - 19A1 of Appendix 1. Individual plasma concentrations of Fexinidazole and both metabolites are plot in Figures 1 - 9, whilst the mean concentrations are plot in Figures 10 - 15. Mean normalized Cmax and AUC0-t(last) values of Fexinidazole and metabolites vs. dose are plot in Figures 16 - 21.
In-study bioanalytical validation data are reported in Appendix 2. All analytical batches met […]

[1] = Sprague Dawley (Crl:CD (SD)IGS BR), 50 mg/kg/day, Day 28, female
[2] = Sprague Dawley (Crl:CD (SD)IGS BR), 50 mg/kg/day, Day 28, male
[3] = Sprague Dawley (Crl:CD (SD)IGS BR), 200 mg/kg/day, Day 28, female
[4] = Sprague Dawley (Crl:CD (SD)IGS BR), 200 mg/kg/day, Day 28, male
[5] = Sprague Dawley (Crl:CD (SD)IGS BR), 800 mg/kg/day, Day 28, female (n=2)
[6] = Sprague Dawley (Crl:CD (SD)IGS BR), 800 mg/kg/day, Day 28, male
[7] = Sprague-Dawley (Crl:CD (SD)IGS BR), 50 mg/kg/day, 50 mg/kg/day po, day 1
[8] = Sprague-Dawley (Crl:CD (SD)IGS BR), 50 mg/kg/day, 50 mg/kg/day po, day 14
[9] = Sprague-Dawley (Crl:CD (SD)IGS BR), 200 mg/kg/day, 200 mg/kg/day po, day 1
[10] = both sexes, Sprague-Dawley (Crl:CD (SD)IGS BR), 200 mg/kg/day, 200 mg/kg/day po, day 14
[11] = both sexes, Sprague-Dawley (Crl:CD (SD)IGS BR), 800 mg/kg/day, 800 mg/kg/day po, day 1
[12] = both sexes, Sprague-Dawley (Crl:CD (SD)IGS BR), 800 mg/kg/day, 800 mg/kg/day po, day 14

SMILES: Cn1c([N+](=O)[O-])cnc1COc1ccc([S+](C)[O-])cc1 (stereo not drawn) [Fexinidazole sulfoxide]
- AUC [1]: 53.8 ± 15.7 µg·h/mL
- half-life [1]: 366 ± 228 min
- AUC [2]: 29.5 ± 8.92 µg·h/mL
- half-life [2]: 300 ± 120 min
- AUC [3]: 138 ± 14.2 µg·h/mL
- half-life [3]: 486 ± 186 min
- AUC [4]: 122 ± 29.3 µg·h/mL
- half-life [4]: 378 ± 174 min
- AUC [5]: 292 ± 40.3 µg·h/mL
- half-life [5]: 516 ± 138 min
- AUC [6]: 130 ± 56.8 µg·h/mL
- half-life [6]: 396 ± 246 min
- Cmax [7]: 2700 ± 1400 ng/mL
- Tmax [7]: 2.5 ± 1.22 h
- AUC(0-t) (Sprague-Dawley (Crl:CD (SD)IGS BR), 50 mg/kg/day, 50 mg/kg/day po, day 1, read-out: AUC0-t(last)): 15.4 ± 9.28 µg·h/mL
- Cmax [8]: 5230 ± 3280 ng/mL
- Tmax [8]: 2.17 ± 0.98 h
- AUC(0-t) (Sprague-Dawley (Crl:CD (SD)IGS BR), 50 mg/kg/day, 50 mg/kg/day po, day 14, read-out: AUC0-t(last)): 29.8 ± 19.4 µg·h/mL
- Cmax [9]: 11400 ± 2170 ng/mL
- Tmax [9]: 2.33 ± 0.82 h
- AUC(0-t) (both sexes, Sprague-Dawley (Crl:CD (SD)IGS BR), 200 mg/kg/day, 200 mg/kg/day po, day 1, read-out: AUC0-t(last)): 85.9 ± 14.1 µg·h/mL
- Cmax [10]: 15800 ± 3170 ng/mL
- Tmax [10]: 3.33 ± 1.03 h
- AUC(0-t) (both sexes, Sprague-Dawley (Crl:CD (SD)IGS BR), 200 mg/kg/day, 200 mg/kg/day po, day 14, read-out: AUC0-t(last)): 118 ± 38.9 µg·h/mL
- Cmax [11]: 31700 ± 3740 ng/mL
- Tmax [11]: 4.67 ± 1.63 h
- AUC(0-t) (both sexes, Sprague-Dawley (Crl:CD (SD)IGS BR), 800 mg/kg/day, 800 mg/kg/day po, day 1, read-out: AUC0-t(last)): 410 ± 101 µg·h/mL
- Cmax [12]: 25000 ± 8990 ng/mL
- Tmax [12]: 2.67 ± 1.03 h
- AUC(0-t) (both sexes, Sprague-Dawley (Crl:CD (SD)IGS BR), 800 mg/kg/day, 800 mg/kg/day po, day 14, read-out: AUC0-t(last)): 277 ± 160 µg·h/mL
- Cmax (female, Sprague Dawley (Crl:CD (SD)IGS BR), 50 mg/kg, Day 1, female): 3890 ± 663 ng/mL
- AUC(0-t) (female, Sprague Dawley (Crl:CD (SD)IGS BR), 50 mg/kg, Day 1, female, read-out: AUC0-t(last)): 23.2 ± 5.33 µg·h/mL
- Cmax (female, Sprague Dawley (Crl:CD (SD)IGS BR), 50 mg/kg/day, Day 28, female): 11400 ± 6600 ng/mL
- AUC(0-t) (female, Sprague Dawley (Crl:CD (SD)IGS BR), 50 mg/kg/day, Day 28, female, read-out: AUC0-t(last)): 78 ± 23.6 µg·h/mL
- Cmax (female, Sprague Dawley (Crl:CD (SD)IGS BR), 200 mg/kg, Day 1, female): 12800 ± 1130 ng/mL
- AUC(0-t) (female, Sprague Dawley (Crl:CD (SD)IGS BR), 200 mg/kg, Day 1, female, read-out: AUC0-t(last)): 91.4 ± 19.7 µg·h/mL
- Cmax (female, Sprague Dawley (Crl:CD (SD)IGS BR), 200 mg/kg/day, Day 28, female): 22300 ± 1470 ng/mL
- AUC(0-t) (female, Sprague Dawley (Crl:CD (SD)IGS BR), 200 mg/kg/day, Day 28, female, read-out: AUC0-t(last)): 153 ± 36.9 µg·h/mL
- Cmax (female, Sprague Dawley (Crl:CD (SD)IGS BR), 800 mg/kg, Day 1, female): 30600 ± 2620 ng/mL
- AUC(0-t) (female, Sprague Dawley (Crl:CD (SD)IGS BR), 800 mg/kg, Day 1, female, read-out: AUC0-t(last)): 453 ± 84.7 µg·h/mL
- Cmax (female, Sprague Dawley (Crl:CD (SD)IGS BR), 800 mg/kg/day, Day 28, female (n=2)): 25800 ± 2050 ng/mL
- AUC(0-t) (female, Sprague Dawley (Crl:CD (SD)IGS BR), 800 mg/kg/day, Day 28, female (n=2), read-out: AUC0-t(last)): 331 ± 57.3 µg·h/mL
- Cmax (male, Sprague Dawley (Crl:CD (SD)IGS BR), 50 mg/kg, Day 1, male): 1500 ± 413 ng/mL
- AUC(0-t) (male, Sprague Dawley (Crl:CD (SD)IGS BR), 50 mg/kg, Day 1, male, read-out: AUC0-t(last)): 7.66 ± 2.38 µg·h/mL
- Cmax (male, Sprague Dawley (Crl:CD (SD)IGS BR), 50 mg/kg/day, Day 28, male): 4530 ± 664 ng/mL
- AUC(0-t) (male, Sprague Dawley (Crl:CD (SD)IGS BR), 50 mg/kg/day, Day 28, male, read-out: AUC0-t(last)): 30.6 ± 10.9 µg·h/mL
- Cmax (male, Sprague Dawley (Crl:CD (SD)IGS BR), 200 mg/kg, Day 1, male): 9990 ± 2130 ng/mL
- AUC(0-t) (male, Sprague Dawley (Crl:CD (SD)IGS BR), 200 mg/kg, Day 1, male, read-out: AUC0-t(last)): 80.5 ± 4.31 µg·h/mL
- Cmax (male, Sprague Dawley (Crl:CD (SD)IGS BR), 200 mg/kg/day, Day 28, male): 11600 ± 2400 ng/mL
- AUC(0-t) (male, Sprague Dawley (Crl:CD (SD)IGS BR), 200 mg/kg/day, Day 28, male, read-out: AUC0-t(last)): 138 ± 45 µg·h/mL
- Cmax (male, Sprague Dawley (Crl:CD (SD)IGS BR), 800 mg/kg, Day 1, male): 32800 ± 4950 ng/mL
- AUC(0-t) (male, Sprague Dawley (Crl:CD (SD)IGS BR), 800 mg/kg, Day 1, male, read-out: AUC0-t(last)): 366 ± 113 µg·h/mL
- Cmax (male, Sprague Dawley (Crl:CD (SD)IGS BR), 800 mg/kg/day, Day 28, male): 16600 ± 2080 ng/mL
- AUC(0-t) (male, Sprague Dawley (Crl:CD (SD)IGS BR), 800 mg/kg/day, Day 28, male, read-out: AUC0-t(last)): 268 ± 64.1 µg·h/mL
